From publication PMC11842588, “A first-in-class selective inhibitor of ERK1/2 and ERK5 overcomes drug resistance with a single-molecule strategy” (Signal Transduction and Targeted Therapy, 2025)

Legend:
MDA-MB-468 cells = test: MTT cell viability assay; assay type: cell-based; conditions: 10 μM
Method: (§1) MDA-MB-468 and MDA-MB-436 cells were cultured in Leibovitz’s L-15 medium supplemented with 10% fetal bovine serum. […] All of the cells were cultured at 37 °C in a humidified atmosphere containing 5% CO2.
(§2) Cancer cells were seeded in a density in 96-well plates (2 × 10^3 cells per well). After incubation for 24 h, cancer cells were treated with compounds (0–20 μM) for 72 h.

MDA-MB-231 cells = test: MTT cell viability assay; assay type: cell-based; conditions: 10 μM
Method: as §1, §2

ERK2 = ERK2 (Homo sapiens, UniProt P28482); test: ADP-Glo kinase assay; assay type: biochemical; conditions: for inhibition at 0.5 µM: read-out: Enzyme inhibitory activity (500 nM, %) ERK2
Chain of ERK2 (P28482 whole entry, the tested form may be a part): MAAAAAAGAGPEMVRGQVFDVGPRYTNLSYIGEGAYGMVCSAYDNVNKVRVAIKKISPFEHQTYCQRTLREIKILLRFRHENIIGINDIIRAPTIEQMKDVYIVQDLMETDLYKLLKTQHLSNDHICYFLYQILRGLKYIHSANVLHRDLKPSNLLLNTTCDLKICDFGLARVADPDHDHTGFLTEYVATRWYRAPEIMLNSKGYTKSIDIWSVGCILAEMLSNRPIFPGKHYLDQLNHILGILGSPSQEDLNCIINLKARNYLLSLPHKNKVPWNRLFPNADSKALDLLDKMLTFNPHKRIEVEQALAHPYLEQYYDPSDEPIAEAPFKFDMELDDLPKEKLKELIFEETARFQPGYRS
Method: (§3) The full-length human ERK1 or ERK2 with His-tag was cloned into a pET28a vector. hERK1/2 were expressed in Escherichia coli BL21(DE3), and then were purified using sequential Ni-NTA and Superdex 200 column steps. The SEC purified sample was then concentrated to 10 mg/ml and stored at −80 °C with buffer containing 20 mM HEPES pH 7.5, 150 mM NaCl. ERK5 (residues 48–395) containing His and GST tags was cloned into the pFastBac vector, and the recombinant plasmid was extracted. The recombinant plasmid was transformed into the DH10bac strain, and monoclonal was selected for culture. The recombinant Bacmid was then extracted according to the instructions of the Baculovirus Shuttle Vector Bacmid Mini Preparation Kit (Beyotime) and validated by PCR. 1 × 10^6/well Sf9 cells were counted for transfection and then amplified to obtain P3 ERK5 recombinant baculovirus. It was added to 2 × 10^6/mL Sf9 cells and incubated at 27 °C for 72 h on a shaker to express ERK5. Cells were lysed and supernatant was collected on a Ni-NTA for purification, and a 250 mM imidazole eluate was collected. Next, digestion by TEV protease was performed overnight while dialysis was performed in approximately 1000 mL of imidazole-free buffer. The digested ERK5 protein was sequentially purified on the Ni-NTA and GST-tag Purification Resin, followed by size exclusion chromatography on a Superdex 75 column. ERK5 protein was collected and concentrated to 12 mg/ml and stored at −80 °C in buffer containing 50 mM HEPES pH 8.0, 200 mM NaCl, 10% (v/v) glycerol.
(§4) ERK1/2/5 kinase activity assay was conducted using ADP-Glo™ Kinase Assay. 2× ATP solution and 2× kinase & Metal solution were prepared using assay buffer were prepared using assay buffer containing 50 mM Hepes pH 7.5, 10 mM MgCl2; 0.01% Brij35, 1 mM EGTA, 2 mM DTT. Transfer 40 nL compounds to 384 assay plate. Add 2 μL of 2× kinase & Metal solution were mixed and incubated in a 384-assay plate for 10 min at 25 °C. 2 μL of 2×ATP solution was added and incubated at 25 °C for 60 min. And then, each well was supplemented with 4 µL of ADP-Glo^TM reagent and incubated at 25 °C for 40 min. Subsequently, 8 µL of Kinase Detection Reagent was added and incubated at 25 °C for 40 min. Finally, the luminescence signals were recorded. The IC50 values were calculated using GraphPad Prism 9.5 software.

ERK5 = ERK5 (Homo sapiens, UniProt Q13164); test: ADP-Glo kinase assay; assay type: biochemical; conditions: for inhibition at 0.5 µM: read-out: Enzyme inhibitory activity (500 nM, %) ERK5
Chain of ERK5 (Q13164 whole entry): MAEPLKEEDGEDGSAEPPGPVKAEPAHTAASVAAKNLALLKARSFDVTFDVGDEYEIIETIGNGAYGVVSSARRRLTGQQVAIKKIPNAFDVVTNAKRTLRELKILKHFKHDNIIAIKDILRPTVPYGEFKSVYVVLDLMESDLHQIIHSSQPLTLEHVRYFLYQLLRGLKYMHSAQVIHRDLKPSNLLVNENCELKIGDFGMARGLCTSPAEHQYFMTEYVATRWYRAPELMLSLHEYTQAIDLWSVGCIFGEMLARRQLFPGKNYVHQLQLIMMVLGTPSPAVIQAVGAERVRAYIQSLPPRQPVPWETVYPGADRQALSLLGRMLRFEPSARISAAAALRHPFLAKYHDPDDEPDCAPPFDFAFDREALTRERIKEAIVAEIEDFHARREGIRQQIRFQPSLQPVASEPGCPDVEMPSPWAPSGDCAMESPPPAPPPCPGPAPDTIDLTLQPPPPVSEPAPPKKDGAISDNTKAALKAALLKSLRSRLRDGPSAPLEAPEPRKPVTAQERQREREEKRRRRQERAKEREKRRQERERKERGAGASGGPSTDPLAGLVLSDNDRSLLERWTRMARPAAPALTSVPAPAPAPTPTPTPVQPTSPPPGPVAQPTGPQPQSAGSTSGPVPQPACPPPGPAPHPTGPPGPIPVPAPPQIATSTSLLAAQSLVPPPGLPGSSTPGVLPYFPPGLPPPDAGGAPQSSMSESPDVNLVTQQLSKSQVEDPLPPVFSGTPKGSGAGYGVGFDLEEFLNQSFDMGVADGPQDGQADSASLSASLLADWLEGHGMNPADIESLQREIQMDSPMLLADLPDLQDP
Method: as §3, §4

ERK1 = ERK1 (Homo sapiens, UniProt P27361); test: ADP-Glo kinase assay; assay type: biochemical; conditions: for inhibition at 0.5 µM: read-out: Enzyme inhibitory activity (500 nM, %) ERK1
Chain of ERK1 (P27361 whole entry): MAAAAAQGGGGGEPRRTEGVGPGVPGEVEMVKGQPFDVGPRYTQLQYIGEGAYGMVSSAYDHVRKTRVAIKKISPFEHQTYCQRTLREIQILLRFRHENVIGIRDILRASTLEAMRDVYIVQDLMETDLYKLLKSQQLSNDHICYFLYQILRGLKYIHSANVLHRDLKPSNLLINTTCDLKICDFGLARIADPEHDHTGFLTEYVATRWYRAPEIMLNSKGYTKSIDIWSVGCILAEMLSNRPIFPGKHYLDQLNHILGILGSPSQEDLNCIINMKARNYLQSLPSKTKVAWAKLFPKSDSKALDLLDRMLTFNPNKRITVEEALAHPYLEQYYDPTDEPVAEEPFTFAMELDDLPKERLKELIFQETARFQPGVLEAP
Method: as §3, §4

inhibition at 0.5 µM (ERK2) [%] | inhibition at 0.5 µM (ERK5) [%] | inhibition at 0.5 µM (ERK1) [%] | Enzyme inhibitory activity (500 nM, %) ERK2 (ERK2) [%] | Enzyme inhibitory activity (500 nM, %) ERK5 (ERK5) [%] | Enzyme inhibitory activity (500 nM, %) ERK1 (ERK1) [%] | Compound | Anti-proliferative activity (10 μM, %) MDA-MB-468 (MDA-MB-468 cells) [%] | Anti-proliferative activity (10 μM, %) MDA-MB-231 (MDA-MB-231 cells) [%]
 |  |  | 46.65 ± 0.32 | 32.34 ± 0.89 | 47.12 ± 9.23 | Cn1nccc1Nc1ncc(Cl)c(-c2csc(C(=O)Nc3cccc(Br)c3)c2)n1 [6l] | 23.35 ± 2.37 | 33.90 ± 1.22
 |  |  | 53.43 ± 0.43 | 35.45 ± 1.32 | 50.98 ± 3.23 | Cn1nccc1Nc1ncc(Cl)c(-c2csc(C(=O)Nc3cccc(C(F)(F)F)c3)c2)n1 [6m] | 30.41 ± 0.68 | 34.62 ± 1.24
 |  |  | 66.54 ± 2.11 | 18.64 ±2.32 | 67.08 ± 0.98 | Cn1nccc1Nc1ncc(Cl)c(-c2csc(C(=O)Nc3cccc(OC(F)(F)F)c3)c2)n1 [6n] | 33.21 ± 0.54 | 43.93 ± 0.21
 |  |  | 84.67 ± 0.65 | 77.49 ± 0.89 | 86.34 ± 0.79 | Cn1nccc1Nc1ncc(Cl)c(-c2csc(C(=O)Nc3cccc(N)c3)c2)n1 [6p] | 28.42 ± 1.21 | 33.51 ± 0.32
 |  |  | 82.11 ±0.61 | 65.90 ± 3.12 | 80.23 ± 0.68 | Cc1cccc(NC(=O)c2cc(-c3nc(Nc4ccnn4C)ncc3Cl)cs2)c1 [6q] | 33.20± 0.44 | 29.43 ± 3.25
 |  |  | 89.45 ± 1.55 | 67.34 ± 3.20 | 88.34 ± 1.78 | CCc1cccc(NC(=O)c2cc(-c3nc(Nc4ccnn4C)ncc3Cl)cs2)c1 [6r] | 30.21 ± 1.11 | 15.53 ± 0.90
 |  |  | 51.08 ±2.31 | 23.21 ± 3.45 | 50.78 ± 0.89 | Cn1nccc1Nc1ncc(Cl)c(-c2csc(C(=O)Nc3ccc(C(F)(F)F)cc3)c2)n1 [6y] | 9.83 ± 0.93 | 8.87 ± 1.11
 |  |  | 45.57 ± 0.34 | 21.12 ± 2.34 | 41.09 ± 1.05 | COc1ccc(NC(=O)c2cc(-c3nc(Nc4ccn(C)n4)ncc3Cl)cs2)cc1 [9a] | 8.70 ± 3.21 | 1.23 ± 1.20
 |  |  | 23.97 ± 0.90 | 78.85 ± 2.67 |  | CN(C)Cc1cccc(Nc2ncc(Cl)c(-c3csc(C(=O)Nc4cccc(N(C)C)c4)c3)n2)c1 [18d] | 50.45 ± 2.12 | 85.64 ± 1.02
64.2 | 59.5 | 62.5 |  |  |  | COc1cc(N2CCN(C)CC2)ccc1NC(=O)c1cc(-c2nc(Nc3ccnn3C)ncc2Cl)cs1 [H1] |  | 

The remaining lines, values behind:

Compound | inhibition at 0.5 µM (ERK2) [%] | inhibition at 0.5 µM (ERK5) [%] | inhibition at 0.5 µM (ERK1) [%] | Enzyme inhibitory activity (500 nM, %) ERK2 (ERK2) [%] | Enzyme inhibitory activity (500 nM, %) ERK5 (ERK5) [%] | Enzyme inhibitory activity (500 nM, %) ERK1 (ERK1) [%] | Anti-proliferative activity (10 μM, %) MDA-MB-468 (MDA-MB-468 cells) [%] | Anti-proliferative activity (10 μM, %) MDA-MB-231 (MDA-MB-231 cells) [%]
CN1CCN(NC(=O)c2cc(-c3nc(Nc4ccnn4C)ncc3Cl)cs2)CC1 [6a, 4-(5-chloro-2-((1-methyl-1H-pyrazol-5-yl)amino)pyrimidin-4-yl)-N-(4-methylpiperazin-1-yl)thiophene-2-carboxamide] | 97.4 ± 3.45 | 63.8 ± 0.32 | 95.72 ± 0.65 |  |  |  | 10.78 ± 1.32 | 15.06 ± 0.35
CSc1ccc(NC(=O)c2cc(-c3nc(Nc4ccnn4C)ncc3Cl)cs2)cc1 [6ac] |  |  |  | 97.67 ± 0.90 | 69.90 ± 2.56 | 95.98 ± 1.02 | 18.49 ± 0.23 | 22.57 ± 1.11
CC(C)Oc1ccc(NC(=O)c2cc(-c3nc(Nc4ccnn4C)ncc3Cl)cs2)cc1 [6ae] |  |  |  | 95.32 ± 0.08 | 61.02 ± 1.22 | 93.45 ± 1.80 | 4.62 ± 0.89 | 15.96 ± 0.09
COc1ccc(NC(=O)c2cc(-c3nc(Nc4ccnn4C)ncc3Cl)cs2)cc1OC [6ag, 4-(5-chloro-2-((1-methyl-1H-pyrazol-5-yl)amino)pyri-midin-4-yl)-N-(3,4-dimethoxyphenyl)thiophene-2-carboxamide] |  |  |  | 94.53 ± 1.21 | 65.13 ± 0.90 | 92.13 ± 1.04 | 25.61 ± 0.45 | 33.67 ± 0.08
CN1CCN(C(=O)c2cc(-c3nc(Nc4ccnn4C)ncc3Cl)cs2)CC1 [6b] |  |  |  | 39.03 ± 2.13 | 28.02 ± 1.34 | 40.45 ± 1.23 | 25.81 ± 2.43 | 3.15 ± 1.22
CC(C)N1CCN(C(=O)c2cc(-c3nc(Nc4ccnn4C)ncc3Cl)cs2)CC1 [6c] |  |  |  | 14.38 ± 0.24 | 19.12 ± 2.15 | 21.57 ± 2.34 | 3.51 ± 0.77 | 5.71 ± 1.21
Cn1nccc1Nc1ncc(Cl)c(-c2csc(C(=O)NC3CCSCC3)c2)n1 [6d] |  |  |  | 91.52 ± 0.31 | 34.57 ± 1.42 | 93.12 ± 1.89 | 23.35 ± 2.34 | 37.21 ± 0.72
Cn1nccc1Nc1ncc(Cl)c(-c2csc(C(=O)NN3CCOCC3)c2)n1 [6e] |  |  |  | 99.00 ± 0.56 | 70.61 ± 0.98 | 97.82 ± 0.43 | 0.70 ± 0.45 | 11.49 ± 1.48
Cn1nccc1Nc1ncc(Cl)c(-c2csc(C(=O)N[C@H]3CC[C@H](O)CC3)c2)n1 [6f] |  |  |  | 89.54 ± 2.31 | 35.94 ± 1.21 | 89.31 ± 0.87 | 57.68 ± 1.09 | 11.85 ± 2.31
Cc1cc(NC(=O)c2cc(-c3nc(Nc4ccnn4C)ncc3Cl)cs2)ccn1 [6g] |  |  |  | 72.75 ± 2.14 | 73.61 ± 3.12 | 70.32 ± 0.91 | 20.23 ± 0.32 | 6.82 ± 2.13
Cn1nccc1Nc1ncc(Cl)c(-c2csc(C(=O)NCc3cnccn3)c2)n1 [6h] |  |  |  |  |  |  | 7.43 ± 3.45 | 23.65 ± 1.27
Cn1nccc1Nc1ncc(Cl)c(-c2csc(C(=O)Nc3ccccc3)c2)n1 [6i] |  |  |  |  |  |  | -12.07 ± 2.31 | 5.65 ± 0.22
Cn1nccc1Nc1ncc(Cl)c(-c2csc(C(=O)Nc3cccc(F)c3)c2)n1 [6j] |  |  |  |  |  |  | 10.11 ± 0.76 | 25.73 ± 0.57
Cn1nccc1Nc1ncc(Cl)c(-c2csc(C(=O)Nc3cccc(Cl)c3)c2)n1 [6k] |  |  |  | 57.85 ± 0.88 | 36.99 ± 0.32 | 59.39 ± 3.21 | 23.41 ± 0.48 | 39.12 ± 1.23
